US20120157377A1, “METHODS TO ENHANCE NIGHT VISION AND TREATMENT OF NIGHT BLINDNESS” (priority 2012, published 2012)

Key:
[1] = cited from earlier work
mice = details: cited from earlier work
humans = assay: Case reports: ophthalmic drops instilled into the conjunctival sac for night vision and night blindness; details: micro doses in the ophthalmic drops

Structure (SMILES)	red fluorescence (>640 nm) of eyes versus control mice ([1]; intravenously injected chlorin e6)	fluorescence emission of removed eyes (uptake by the retina) ([1]; mice, 2.00 mg per kilogram body weight intravenously, one hour after administration)	persistence of deposits in the photoreceptors ([1]; mice, intravenous chlorin e6)	neural impulse generation in the retina in response to amber light (mice; in the presence of chlorin e6)	neural impulse generation in the retina in response to red and blue light (mice; in the presence of chlorin e6)	electroretinographic amplitudes in response to red and blue light (mice; mice administered chlorin e6)	hallucinogenic or other ill effect (humans)
C=Cc1c(C)c2cc3nc(c(CC(=O)O)c4[nH]c(cc5nc(cc1[nH]2)C(C)=C5CC)c(C)c4C(=O)O)[C@@H](CCC(=O)O)[C@@H]3C (relative stereo) [chlorin e6]	three times more red fluorescence	strong emission band of red florescence centered at 675 nm	remained in the photoreceptors for three hours post administration	not amber light	almost two-fold increase	two-fold greater	
CNC1(c2ccccc2Cl)CCCCC1=O (stereo not shown) [ketamine]							no hallucinogenic or other ill effect
